{"source": "patent US9988626B2", "about": "“Neurocalcin delta inhibitors and therapeutic and non-therapeutic uses thereof” (Universität Zu Köln, priority 2013, dated 2018)", "test_system": "zebrafish embryos", "assay": "Whole cell current clamp recordings of endplate potentials in zebrafish ventral fast muscle cells", "type": "in vivo", "protocol": "Experiments were conducted with zebrafish embryos (wildtype (wt) contras, smn-, ncald-, and smn/ncald-morphants) 72 hours post fertilization. The animals were anesthetized with 0.02% tricaine (in saline; E10521, Sigma-Aldrich, Taufkirchen, Germany) for 1-2 min and then rinsed with saline. The saline contained (in mM): 134 NaCl, 2.9 KCl, 2.1 CaCl2, 1.2 MgCl2, 10 HEPES, 10 Glucose adjusted to pH 7.8 with NaOH. The fish were decapitated and pinned under saline in a Sylgard-coated (SYLG184, Dow Coming, Midland, Mich.) recording chamber (˜3 ml volume). The skin was peeled off using a sharp tungsten pin and fine forceps and the preparation was incubated in 3 M formamide (in saline; 6749.1, Carl Roth GmbH, Karlsruhe) for 2 min to prevent muscle contractions. After rinsing the preparation, the superficial layer of ventral slow muscle cells was removed by gently scratching with a fine tungsten pin to expose deeper lying fast skeletal muscle cells. Remaining superficial slow muscles in the segments of interest were removed with a low resistance pipette (˜2 MΩ). […] Muscle cells were visualized with a fixed-stage upright microscope (Zeiss Axio Examiner, Carl Zeiss Microscopy GmbH, Jena, Germany), using a 40× water immersion objective (W Plan-Apochromat, 40×; 1.0 numerical aperture; 2.5 mm working distance; Zeiss) with infrared-differential interference contrast (Dodt and Zieglgansberger 1990) and fluorescence optics. […]\nWhole-cell patch clamp recordings in current-clamp mode were performed with an EPC10 patch-clamp amplifier (HEKA-Elektronik, Lambrecht, Germany) that was controlled by the program Patchmaster (version 2.53, HEKA-Elektronik) running under Windows. […] The calculated liquid junction potential between intracellular and extracellular solution of 5.8 mV (calculated with Patcher's-Power-Tools plug-in from http://www.mpibpc.gwdg.de/abteilungen/140/software/index.html for Igor Pro 6 [Wavemetrics, Portland, Oreg., USA]) was also compensated. Whole-cell capacitance was determined by using the capacitance compensation (C-slow) of the EPC10. […]", "data": [{"substance": "smn MO: previously published morpholino knocking down zebrafish smn, CGACATCTTCTGCACCATTGGC (all phosphorodiamidate morpholino (PMO))", "values": [{"measurement": "Frequency of large NMDA-induced EPP / action potentials", "setting": "72 hpf zebrafish, ventral fast muscle cells, NMDA (100 μM) stimulation", "value": "0.37±0.17", "unit": "Hz"}, {"measurement": "Spontaneous mEPP frequency at rest", "setting": "72 hpf zebrafish, ventral fast muscle cells, without stimulation", "value": "0.32±0.16", "unit": "Hz"}, {"measurement": "Resting and NMDA induced EPP activity", "setting": "zebrafish morphants compared to wild type", "value": "significant reduction of the mEPP and the EPP rate"}]}]}
